In patent publication US7070928B2, “Evolving new molecular function” (President and Fellows of Harvard College, priority 2001, dated 2006):

Key:
αvβ3 integrin receptor = αvβ3 integrin receptor (Homo sapiens, UniProt P05106+P06756); details: benchmark αvβ3 integrin antagonists; cited from earlier work
Taq DNA polymerase = Taq DNA polymerase (Thermus aquaticus, UniProt P19821); experiment: acceptance of modified nucleotide triphosphates in PCR; type: biochemical; details: 30 PCR cycles, pUC19 template DNA, three natural deoxynucleotide triphosphates, gel electrophoresis (FIG. 51)
From the text: The ability of thermostable DNA polymerases suitable for PCR amplification to accept these modified nucleotide triphosphates containing metal-binding functionality. Non-natural nucleotide triphosphates were purified by ion exchange HPLC and added to PCR reactions containing Taq DNA polymerase, three natural deoxynucleotide triphosphates, pUC19 template DNA, and two DNA primers. Primers were chosen to generate PCR products ranging from 50 to 200 base pairs in length. Control PCR reactions contained the four natural deoxynucleotide triphosphates and no non-natural nucleotides. PCR reactions were analyzed by agarose or denaturing acrylamide gel electrophoresis. […] Previous findings on the acceptance of 7 by Taq DNA polymerase are in conflict, with-both non-acceptance (K. Sakthivel et al. Angew. Chem. Int. Ed. Engl. 1998, 37, 2872–2875) and acceptance (S. E. Lee et al. Nucleic Acids Res. 2001, 29, 1565–73) reported.

Chain of Taq DNA polymerase (P19821 whole entry): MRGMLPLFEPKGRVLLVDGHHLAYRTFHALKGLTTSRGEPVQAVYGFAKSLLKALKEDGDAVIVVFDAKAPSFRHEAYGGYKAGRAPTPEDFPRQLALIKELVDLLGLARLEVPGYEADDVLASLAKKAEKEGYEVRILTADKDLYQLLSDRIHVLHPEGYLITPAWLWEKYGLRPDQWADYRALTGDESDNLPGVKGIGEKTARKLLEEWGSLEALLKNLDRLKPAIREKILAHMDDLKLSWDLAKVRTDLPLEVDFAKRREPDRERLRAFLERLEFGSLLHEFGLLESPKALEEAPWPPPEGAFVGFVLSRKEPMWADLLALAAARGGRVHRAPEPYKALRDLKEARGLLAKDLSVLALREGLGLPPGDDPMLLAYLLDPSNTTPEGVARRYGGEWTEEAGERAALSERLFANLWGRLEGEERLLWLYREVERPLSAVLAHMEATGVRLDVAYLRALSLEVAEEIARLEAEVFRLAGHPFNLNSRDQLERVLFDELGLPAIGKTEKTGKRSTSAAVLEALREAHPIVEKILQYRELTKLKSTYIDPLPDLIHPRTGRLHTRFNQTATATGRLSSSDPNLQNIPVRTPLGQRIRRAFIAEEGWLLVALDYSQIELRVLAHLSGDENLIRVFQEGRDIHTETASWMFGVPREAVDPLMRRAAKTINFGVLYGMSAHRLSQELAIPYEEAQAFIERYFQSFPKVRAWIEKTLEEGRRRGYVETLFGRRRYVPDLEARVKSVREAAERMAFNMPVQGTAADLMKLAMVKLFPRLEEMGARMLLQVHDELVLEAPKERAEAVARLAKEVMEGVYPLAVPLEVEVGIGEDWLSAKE
Chain of αvβ3 integrin receptor (P06756 31-889 limits assumed): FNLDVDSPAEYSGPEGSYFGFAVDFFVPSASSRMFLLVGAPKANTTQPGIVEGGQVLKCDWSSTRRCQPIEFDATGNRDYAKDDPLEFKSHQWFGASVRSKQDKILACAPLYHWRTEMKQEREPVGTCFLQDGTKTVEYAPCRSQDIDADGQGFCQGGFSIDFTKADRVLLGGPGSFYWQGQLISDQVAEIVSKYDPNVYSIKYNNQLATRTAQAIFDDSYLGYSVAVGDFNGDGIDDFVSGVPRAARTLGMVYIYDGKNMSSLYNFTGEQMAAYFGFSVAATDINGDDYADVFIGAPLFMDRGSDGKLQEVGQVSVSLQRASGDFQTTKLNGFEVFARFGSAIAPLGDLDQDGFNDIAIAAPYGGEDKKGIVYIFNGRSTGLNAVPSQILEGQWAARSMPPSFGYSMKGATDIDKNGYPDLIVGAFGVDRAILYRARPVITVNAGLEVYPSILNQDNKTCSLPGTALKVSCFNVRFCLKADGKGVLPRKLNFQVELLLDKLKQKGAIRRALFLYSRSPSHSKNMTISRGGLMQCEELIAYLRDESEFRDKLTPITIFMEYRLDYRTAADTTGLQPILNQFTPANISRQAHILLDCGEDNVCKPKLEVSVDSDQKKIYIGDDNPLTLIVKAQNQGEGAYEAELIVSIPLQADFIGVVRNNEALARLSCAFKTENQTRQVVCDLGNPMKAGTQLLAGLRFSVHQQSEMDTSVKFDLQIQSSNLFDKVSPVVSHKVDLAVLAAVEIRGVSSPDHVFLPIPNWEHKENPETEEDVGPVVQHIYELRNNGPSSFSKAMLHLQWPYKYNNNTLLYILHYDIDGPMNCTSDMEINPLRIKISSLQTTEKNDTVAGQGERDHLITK
Chain of αvβ3 integrin receptor (P06756 891-1048 partner limits assumed): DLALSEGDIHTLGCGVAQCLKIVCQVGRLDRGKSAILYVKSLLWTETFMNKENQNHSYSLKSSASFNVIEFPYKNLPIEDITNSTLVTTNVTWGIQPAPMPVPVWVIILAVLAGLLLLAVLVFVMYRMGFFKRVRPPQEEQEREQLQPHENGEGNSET
Chain of αvβ3 integrin receptor (P05106 27-788): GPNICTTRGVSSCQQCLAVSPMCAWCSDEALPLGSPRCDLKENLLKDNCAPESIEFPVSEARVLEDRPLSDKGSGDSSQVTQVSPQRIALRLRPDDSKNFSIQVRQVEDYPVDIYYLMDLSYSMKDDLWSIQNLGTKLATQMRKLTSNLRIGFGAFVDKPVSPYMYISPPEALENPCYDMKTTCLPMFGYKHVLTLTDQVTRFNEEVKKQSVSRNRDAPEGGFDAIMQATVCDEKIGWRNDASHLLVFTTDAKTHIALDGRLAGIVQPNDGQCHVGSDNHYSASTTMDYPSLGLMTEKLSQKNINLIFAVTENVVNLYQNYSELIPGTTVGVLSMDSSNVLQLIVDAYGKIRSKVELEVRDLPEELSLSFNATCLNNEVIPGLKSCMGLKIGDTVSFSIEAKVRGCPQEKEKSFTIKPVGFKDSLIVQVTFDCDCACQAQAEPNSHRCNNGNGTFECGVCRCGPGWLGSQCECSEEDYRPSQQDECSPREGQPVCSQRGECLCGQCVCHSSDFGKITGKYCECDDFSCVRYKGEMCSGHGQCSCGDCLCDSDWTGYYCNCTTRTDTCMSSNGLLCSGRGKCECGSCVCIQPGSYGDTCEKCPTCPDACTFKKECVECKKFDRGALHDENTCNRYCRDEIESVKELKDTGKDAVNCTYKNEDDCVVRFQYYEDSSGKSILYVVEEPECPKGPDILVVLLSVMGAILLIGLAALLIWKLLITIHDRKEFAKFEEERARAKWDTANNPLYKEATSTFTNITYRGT

Molecule | IC50 (αvβ3 integrin receptor) | incorporation by Taq DNA polymerase (Taq DNA polymerase)
GRGDSPK [linear peptide, benchmark αvβ3 integrin antagonist] | 0.21 µM | –
O=C(NCC=Cc1cn(C2CC(O)C(COP(=O)(O)OP(=O)(O)OP(=O)(O)O)O2)c(=O)[nH]c1=O)C(F)(F)F (centres unmarked) [triphosphate of 23] | – | not an efficient polymerase substrate
